Test results from patent EP4696691A1, “TRICYCLIC COMPOUND, AND PREPARATION METHOD THEREFOR AND USE THEREOF” (Shanghai Huilun Pharmaceutical Co., Ltd., priority 2023, dated 2024).
Where two headings read alike, the source gives them in different places.

Experiments:
[1] = test system: LPS induced IL-6 release in human PBMC cells; assay: Inhibition of LPS induced IL-6 release in human PBMC cells (IL-6 HTRF assay); format: cell-based; settings: 2 h compound pre-incubation, LPS 5 ng/mL for 4 h, IL-6 in supernatant
Experimental: I. Recovery and seeding of PBMC, and treatment of compounds (human PBMC cells were purchased from Oricell, item number: Fpb003F)
• 1. Preparation of compounds Sample dilutions of a series of concentrations were obtained by dilution in DMSO using Bravo, and then 80 nL was transferred into a cell plate using ECHO. The final concentration of DMSO in the cell culture medium is 0.1%. • 2. Frozen cells were quickly thawed in a 37°C water bath and stirred continuously. • 3. 25 mL of fresh preheated culture medium was added into a 50 mL centrifuge tube, and then the cells were added dropwise. Then the cells were centrifuged at 2,000 rpm for 10 min. • 4. […] The total number of cells required was calculated based on cell concentration to perform the assay. 7×10e4 cells were added per well (70 µL). • 6. The cell plate was placed and incubated in a 5% CO2 incubator at 37°C for 2 h.
• 1. LPS: A stock solution (1 mg/mL) was diluted in dH2O, aliquoted, and stored at -80°C. • 2. 8-fold LPS was added per well (10 µl/well) (with a final concentration of 5 ng/mL). The cells were incubated in a 5% CO2 incubator at 37°C for 4 h. • 3. 70 µl of supernatant was collected per well using Bravo, and then IL-6 HTRF assay was performed. The supernatant may be stored at -80°C.
1. Preparation of standards and sample dilutions. 2. 16 µL of each sample was taken using Bravo and added to wells. Then 16 µL of each standard was taken and added to corresponding wells. 3.4 µL of a premixed IL6 antibody working solution was added to each of all wells. 4. The cell plate was sealed and incubated at room temperature for 2 h. 5.

[2] = biological target: T1, IRAK4-HiBiT fusion protein (Homo sapiens, UniProt Q9NWZ3); assay: Detection of HiBiT-IRAK4 proteolysis levels in K562 IRAK4-HiBiT cells (Nano-Glo HiBiT Lytic assay); format: cell-based
T1 construct: K562 from ATCC
T1 sequence (Q9NWZ3 1-460): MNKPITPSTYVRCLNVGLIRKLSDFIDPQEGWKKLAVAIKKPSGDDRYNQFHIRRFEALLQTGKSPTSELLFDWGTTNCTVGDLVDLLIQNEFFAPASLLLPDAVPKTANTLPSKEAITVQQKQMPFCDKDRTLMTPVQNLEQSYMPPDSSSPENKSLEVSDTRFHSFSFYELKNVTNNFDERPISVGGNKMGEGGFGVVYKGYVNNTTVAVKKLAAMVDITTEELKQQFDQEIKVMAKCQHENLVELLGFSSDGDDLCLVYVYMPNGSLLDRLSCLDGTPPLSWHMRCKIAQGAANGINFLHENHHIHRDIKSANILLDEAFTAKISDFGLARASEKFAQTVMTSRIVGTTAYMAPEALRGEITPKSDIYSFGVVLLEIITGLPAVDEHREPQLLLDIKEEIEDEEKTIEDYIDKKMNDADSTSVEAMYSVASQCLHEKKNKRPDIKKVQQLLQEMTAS
Experimental: Test Example 1 Detection of HiBiT-IRAK4 proteolysis levels in K562 IRAK4-HiBiT cells co-incubated with compounds of the present application • Reagents, devices, and consumables in experiments: • Nano-Glo Lytic Detection Assay, purchased from Promega; • EnVision, purchased from PerkinElmer; • Name of cell line: K562 IRAK4-HiBiT stable transformation cell strain (capable of stably expressing IRAK4-HiBiT fusion protein), constructed by Shanghai Bioduro Biologics Co., Ltd., where a K562 cell strain was purchased from ATCC. The culture medium is IMDM+10% FBS+1% P/S (volume percentage, where FBS is fetal bovine serum and P/S is Penicillin-Streptomycin, a 1:1 mixture of penicillin and streptomycin antibiotic solution (10,000 units/mL)).
Cell culture: K562 IRAK4-HiBiT cells were incubated at 37°C, and passaged every 2-3 d, with a seeding density of 200,000 cells/mL.
IRAK4-HiBiT proteolysis experiment: • Step 1: Cell seeding and treatment of compound • 1. A 10 mM compound mother liquor was prepared using DMSO, and a compound solution with a working concentration of 1,000 times (the highest working concentration is 10 µM, diluted 3.162 times, with a total of 10 concentration gradients) was prepared using Bravo automatic liquid processing platform. • 2. 40 nL of a compound working solution was transferred to a 384 well plate, and an equal volume of DMSO was added to positive control wells. • 3. 20 µL of a culture solution was added per well and shaken for 10 min. • 4.20 µL of a K562 IRAK4-HiBiT cell suspension was added per well (6,000 cells/well), and an equal volume of culture medium was added to negative control wells. • 5. The well plate was rotated at 1,000 rpm for 1 min. • 6. The cells were incubated in a 5% CO2 incubator at 37°C for 2 h or 6 h. • Step 2: HiBiT Lytic experiment • 1. The well plate was placed at room temperature to equilibrate for 30 min. • 2. 20 µL of Nano-Glo HiBiT Lytic reagent (trade name: Nano-Glo® HiBiT Lytic Detection Reagent) and the well plate was kept in the dark. • 3. The well plate was placed on an orbital shaker at 300 rpm for 5 min. • 4. The cells were incubated at room temperature for 10 min. • 5. The luminous value was read by Envision. • 6. Data was calculated and processed. Degradation degree%=(negative control - experimental well)/(negative control - positive control) * 100%. Using XL-fit software, a degradation curve was obtained by fitting using a 4 Parameter Logistic Model, and the values of Relative DC50 (nM) and Absolute DC50 (nM) were obtained.

[3] = Pharmacokinetic behavior in mice (plasma concentration by LC-MS/MS); format: in vivo; settings: male ICR mice; for Vd: read-out: Vss
Experimental: (§1) Three healthy ICR mice (SPF grade, from Beijing Vital River Laboratory Animal Technology Co., Ltd.), male, weighing 18-25 g, were intravenously injected with a compound (1 mg/kg) at a volume of 5 mL/kg. The compound was prepared using 5% DMSO+10% Solutol+85% Saline (w/v), and the animals were not fasted before the experiment.
as §1, with “were intragastrically administered” for “were intravenously injected with”, “compound (5” for “compound (1”, “of 10” for “of 5”
Blood samples (about 0.05 mL each) were collected from the cheeks at 5 min, 15 min, 30 min, 1 h, 2 h, 4 h, 6 h, 8 h, and 24 h after intravenous administration, and at 5 min, 15 min, 30 min, 1 h, 2 h, 4 h, 6 h, 8 h, and 24 h after intragastrical administration, and anticoagulated with heparin sodium. Following collection, the blood samples were placed on ice and the plasma was centrifuged within 1 h (centrifugation conditions: 6,000 g, 3 min, 2 °C to 8°C). The concentration of the compounds in the plasma was determined by liquid chromatography tandem mass spectrometry. The plasma samples were stored in a -80°C freezer before analysis. With plasma concentration data at different time points, pharmacokinetic parameters were calculated by Phoenix WinNonlin8.2.0, and the results are shown in Table 4: Table 4

[4] = 2 h incubation, read-out: Absolute DC50
[5] = 2 h incubation, read-out: Relative DC50
[6] = Intragastric administration (5 mg/kg)
[7] = Intravenous injection (1 mg/kg)
[8] = mouse, plasma, po, Intragastric administration (5 mg/kg)
[9] = mouse, plasma, po, Intragastric administration (5 mg/kg), read-out: Cmax
[10] = mouse, plasma, Intravenous injection (1 mg/kg)
[11] = mouse, plasma, Intravenous injection (1 mg/kg), read-out: Cmax
[12] = Intragastric administration (5 mg/kg), 5 mg/kg
[13] = Intravenous injection (1 mg/kg), 1 mg/kg
[14] = 6 h incubation, read-out: Absolute DC50
[15] = 6 h incubation, read-out: Relative DC50

SMILES	Dmax ([2]; 2 h incubation) [%]	DC50 [2, 4] [nM]	DC50 [2, 5] [nM]	AUClast [3, 6] [ng·h/mL]	Cmax [3, 6] [ng/mL]	F% [3, 6] [%]	T1/2 [3, 6] [h]	AUClast [3, 7] [ng·h/mL]	CL [3, 7] [mL/min/kg]	Cmax [3, 7] [ng/mL]	Vss [3, 7] [L/kg]	IC50 [1] [nM]	AUC(0-t) [3, 8] [ng·h/mL]	bioavailability [3, 8] [%]	half-life [3, 8] [h]	Cmax [3, 9] [ng/mL]	AUC(0-t) [3, 10] [ng·h/mL]	clearance [3, 10] [mL/min/kg]	Cmax [3, 11] [ng/mL]	Vd [3, 10] [L/kg]	other results
CC(C)(O)c1cc2nn([C@H]3CC[C@H](CCN4CCC5(CC4)OC(=O)c4cc(C6CCC(=O)NC6=O)ccc45)CC3)cc2cc1NC(=O)c1cccc(C(F)(F)F)n1 (stereo partly drawn) [Compound 93]	94	0.74	0.93									0.18	9150	29.5	4.19	844	6210	2.98	783	0.958	
COc1cc2nn([C@H]3CC[C@H](CCN4CCC5(CC4)OCc4cc(C6CCC(=O)NC6=O)ccc45)CC3)cc2cc1NC(=O)c1cccc(C(F)(F)F)n1 (stereo partly drawn) [Compound 46]				3815	207	68.7	27.3	932	6.80	128	21.4	13.7									Dmax ([2]; 6 h incubation): 93.6%; DC50 [2, 14]: 0.92 nM; DC50 [2, 15]: 0.79 nM
COc1cc2nn([C@H]3CC[C@H](CCN4CCC5(CC4)OCc4cc(C6CCC(=O)NC6=O)ccc45)CC3)cc2cc1C(=O)Nc1cccc(C(F)(F)F)n1 (stereo partly drawn) [Compound 96]												0.23	3640	35.4	14.7	239	2060	4.59	243	7.97	Dmax ([2]; 6 h incubation): 97%; DC50 [2, 14]: 0.48 nM; DC50 [2, 15]: 0.44 nM
CN1C(=O)C2(CCN(CC[C@H]3CC[C@H](n4cc5cc(NC(=O)c6cccc(C(F)(F)F)n6)c(C(C)(C)O)cc5n4)CC3)CC2)c2ccc(C3CCC(=O)NC3=O)cc21 (stereo partly drawn) [Compound 121]	92	14	10.8									0.1									
CC(C)Oc1cc2nc([C@H]3CC[C@H](CCN4CCC5(CC4)OCc4cc(C6CCC(=O)NC6=O)ccc45)CC3)cn2cc1C(=O)Nc1cnn2cccnc12 (stereo partly drawn) [Compound 94]												64.5									Dmax ([2]; 6 h incubation): 97%; DC50 [2, 14]: 3.82 nM; DC50 [2, 15]: 3.97 nM

The next lines start with results.

Dmax ([2]; 2 h incubation) [%]	DC50 [2, 4] [nM]	DC50 [2, 5] [nM]	AUClast [3, 6] [ng·h/mL]	Cmax [3, 6] [ng/mL]	F% [3, 6] [%]	T1/2 [3, 6] [h]	AUClast [3, 7] [ng·h/mL]	CL [3, 7] [mL/min/kg]	Cmax [3, 7] [ng/mL]	Vss [3, 7] [L/kg]	SMILES	IC50 [1] [nM]	AUC(0-t) [3, 8] [ng·h/mL]	bioavailability [3, 8] [%]	half-life [3, 8] [h]	Cmax [3, 9] [ng/mL]	AUC(0-t) [3, 10] [ng·h/mL]	clearance [3, 10] [mL/min/kg]	Cmax [3, 11] [ng/mL]	Vd [3, 10] [L/kg]	other results
90	0.42	0.58	19336	1067	31.7	17.5	8794	1.25	832	1.64	CC(C)(O)c1cc2nn([C@H]3CC[C@H](CCN4CCN5c6ccc(C7CCC(=O)NC7=O)cc6OC[C@@H]5C4)CC3)cc2cc1NC(=O)c1cccc(C(F)(F)F)n1 (stereo partly drawn) [Compound 1-a]	0.91									
89	16.8	16.1									CC(C)(O)c1cc2nn(C3CCC(CCN4CCN5c6c(F)cc(NC7CCC(=O)NC7=O)cc6OCC5C4)CC3)cc2cc1NC(=O)c1cccc(C(F)(F)F)n1 (stereo not drawn) [Compound 113]	0.19									
93	23.7	21.4									CC(C)(O)c1cc2nn([C@H]3CC[C@H](CCN4CCN5c6ccc(C7(C)CCC(=O)NC7=O)cc6OC[C@H]5C4)CC3)cc2cc1NC(=O)c1cccc(C(F)(F)F)n1 (single isomer, unassigned) [Compound 120-b-2]	0.75									AUClast [3, 12]: 24277 ng·h/mL; Cmax [3, 12]: 1790 ng/mL; F% [3, 12]: 98.6%; T1/2 [3, 12]: 9.45 h; AUClast [3, 13]: 4925 ng·h/mL; CL [3, 13]: 3.03 mL/min/kg; Cmax [3, 13]: 725 ng/mL; Vss [3, 13]: 1.80 L/kg
88	0.54	0.71	44547	2623	79.5	15.3	11208	1.0	1083	1.23	CC(C)(O)c1cc2nn([C@H]3CC[C@H](CCN4CCN5c6ccc(C7CCC(=O)NC7=O)cc6OC[C@H]5C4)CC3)cc2cc1NC(=O)c1cccc(C(F)(F)F)n1 (stereo partly drawn) [Compound 1-b]	0.86									
90	9.85	8.71									CC(C)(O)c1cc2nn([C@H]3CC[C@H](CCN4CCN5c6c(F)cc(C7CCC(=O)NC7=O)cc6OCC5C4)CC3)cc2cc1NC(=O)c1cccc(C(F)(F)F)n1 (stereo partly drawn) [Compound 4]	4.08	34200	60.1	14.8	2130	10500	1.27	1320	1.07	
